Experimental data: ChEMBL document CHEMBL5338813 (J Med Chem, 2023)
Active and inactive are the calls of the source. No cut-off for these calls is given here.

How the values were obtained:
Cryptosporidium parvum [1] = assay: Antiparasitic activity against Cryptosporidium parvum infected in human HCT-8 cells assessed as parasitic growth inhibition incubated for 48 hrs by fluorescence microscopic analysis; assay type: functional, organism-based; conditions: HCT-8, 48 h
HCT-8 = assay: Cytotoxicity against human HCT-8 cells assessed as reduction in cell number upto 50 uM incubated for 48 hrs by; assay type: toxicity, cell-based; conditions: hct-8, 48 h
[2] = target: Voltage-gated inwardly rectifying potassium channel KCNH2 (Homo sapiens, UniProt Q12809); assay: Displacement of [3H]Dofetilide from human ERG at 30 uM by automated patch clamp assay relative to control; conditions: 30 µM
hERG (KCNH2) [3] = target: T1, hERG (KCNH2) (Homo sapiens, UniProt Q12809); assay: Inhibition of human ERG expressed in CHO cells at 1 uM by automated patch clamp assay relative to control; assay type: cell-based; conditions: CHO cells that express hERG
hERG (KCNH2) [4] = target: T1, hERG (KCNH2); assay: Inhibition of human ERG expressed in CHO cells at 10 uM by automated patch clamp assay relative to control; assay type: cell-based; conditions: CHO cells that express hERG
hERG (KCNH2) [5] = target: T1, hERG (KCNH2); assay: Inhibition of human ERG expressed in CHO cells at 30 uM by automated patch clamp assay relative to control; assay type: cell-based; conditions: CHO cells that express hERG
[6] = Metabolic stability in mouse liver microsomes assessed as intrinsic clearance measured upto 60 mins; assay type: ADME, Microsome; conditions: read-out: CLH
[7] = Metabolic stability in mouse liver microsomes assessed as half life measured upto 60 mins; assay type: ADME, Microsome; conditions: 1 h
[8] = Metabolic stability in mouse intestinal S9 fraction assessed as intrinsic clearance measured upto 60 mins; assay type: ADME, subcellular, Intestine; conditions: read-out: CLH
[9] = Metabolic stability in mouse intestinal S9 fraction assessed as half life measured upto 60 mins; assay type: ADME, subcellular, Intestine; conditions: s9, 1 h
[10] = Plasma protein binding in mouse at 1 uM incubated for 30 mins by LC-MS/MS analysis; assay type: ADME, cell-free; conditions: 0.5 h
[11] = AUC in mouse plasma at 5 mg/kg, po measured upto 24 hrs by LC-MS/MS analysis; assay type: ADME, organism-based; parameters: dose 5 mg/kg, time < 24 hrs, route po; conditions: in vivo
[12] = AUC in mouse Jejunum at 5 mg/kg, po measured upto 24 hrs by LC-MS/MS analysis; assay type: ADME, organism-based; parameters: dose 5 mg/kg, time < 24 hrs, route po; conditions: in vivo
[13] = Cmax in mouse plasma at 5 mg/kg, po measured upto 24 hrs by LC-MS/MS analysis; assay type: ADME, organism-based; parameters: time < 24 hrs, dose 5 mg/kg, route po; conditions: in vivo
[14] = Cmax in mouse Jejunum at 5 mg/kg, po measured upto 24 hrs by LC-MS/MS analysis; assay type: ADME, organism-based; parameters: dose 5 mg/kg, time < 24 hrs, route po; conditions: in vivo
[15] = Tmax in mouse plasma at 5 mg/kg, po measured upto 24 hrs by LC-MS/MS analysis; assay type: ADME, organism-based; conditions: in vivo
[16] = Tmax in mouse Jejunum at 5 mg/kg, po measured upto 24 hrs by LC-MS/MS analysis; assay type: ADME, organism-based; conditions: in vivo
Cryptosporidium parvum [17] = assay: Antiparasitic activity against Cryptosporidium parvum infected in mouse assessed as reduction in parasitic growth at >= 5 mg/kg, po pre-infected with parasite for 7 days followed by compound addition twice daily for 4 days; assay type: functional; parameters: scale not given: the % may be the effect or the level left; conditions: time 4 day
Cryptosporidium parvum [18] = assay: Antiparasitic activity against Cryptosporidium parvum infected in mouse assessed as relapse in parasite growth at >=5 mg/kg, po pre-infected with parasite for 7 days followed by compound addition twice daily for 4 days; assay type: functional, organism-based; conditions: time 4.0 day
Cryptosporidium parvum [19] = assay: Antiparasitic activity against Cryptosporidium parvum infected in mouse assessed as relapse in parasite growth at 5 mg/kg, po pre-infected with parasite for 7 days followed by compound addition twice daily for 4 days; assay type: functional, organism-based; conditions: time 4.0 day

T1 sequence (Q12809 whole entry): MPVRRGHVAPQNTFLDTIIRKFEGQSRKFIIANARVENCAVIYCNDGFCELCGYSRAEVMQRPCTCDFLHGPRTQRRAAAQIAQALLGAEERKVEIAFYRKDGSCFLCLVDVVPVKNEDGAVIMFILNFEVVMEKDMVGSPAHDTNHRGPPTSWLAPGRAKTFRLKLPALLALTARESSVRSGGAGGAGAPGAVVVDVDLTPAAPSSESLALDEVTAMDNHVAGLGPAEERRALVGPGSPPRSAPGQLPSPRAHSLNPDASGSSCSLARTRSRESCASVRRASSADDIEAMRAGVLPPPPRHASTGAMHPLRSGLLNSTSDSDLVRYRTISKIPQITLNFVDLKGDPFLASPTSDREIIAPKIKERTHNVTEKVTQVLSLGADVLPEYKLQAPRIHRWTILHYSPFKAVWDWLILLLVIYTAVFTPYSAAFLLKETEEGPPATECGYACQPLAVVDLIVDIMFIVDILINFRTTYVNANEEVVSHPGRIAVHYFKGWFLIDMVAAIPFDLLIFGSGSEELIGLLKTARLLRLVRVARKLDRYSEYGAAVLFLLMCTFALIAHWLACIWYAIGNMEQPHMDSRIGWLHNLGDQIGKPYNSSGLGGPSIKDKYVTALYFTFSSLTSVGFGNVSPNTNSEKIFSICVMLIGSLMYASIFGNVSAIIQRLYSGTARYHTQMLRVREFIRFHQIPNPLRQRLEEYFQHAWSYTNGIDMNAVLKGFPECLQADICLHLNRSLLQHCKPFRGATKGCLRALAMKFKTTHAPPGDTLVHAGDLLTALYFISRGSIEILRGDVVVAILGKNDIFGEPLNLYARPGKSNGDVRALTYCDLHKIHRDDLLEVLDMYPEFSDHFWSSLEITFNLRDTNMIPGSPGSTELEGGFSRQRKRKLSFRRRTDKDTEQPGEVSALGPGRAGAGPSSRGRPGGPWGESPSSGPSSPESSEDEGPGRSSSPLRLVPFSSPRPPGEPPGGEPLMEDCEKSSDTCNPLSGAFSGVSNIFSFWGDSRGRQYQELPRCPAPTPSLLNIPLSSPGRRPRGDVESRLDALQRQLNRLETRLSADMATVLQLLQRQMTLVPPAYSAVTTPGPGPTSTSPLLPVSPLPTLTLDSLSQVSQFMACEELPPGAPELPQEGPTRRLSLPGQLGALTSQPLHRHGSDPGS
Voltage-gated inwardly rectifying potassium channel KCNH2, sequence (Q12809 whole entry): as above

microsomal CLint [6]: < 57.8 µL/min/mg | t1/2 [7]: > 2 h | microsomal CLint [8]: < 5.8 µL/min/mg | t1/2 [9]: > 2 h | PPB [10]: 51.8% | AUC [11]: 3300 ng·h/mL | AUC [12]: 2998 ng·h/g | Cmax [13]: 568 ng/mL | Cmax [14]: 299 ng/g | Tmax [15]: 1 h | Tmax [16]: 2 h
Compound: O=C(Cc1ccc(F)c(C(F)(F)F)c1)N1CCN(c2ccc3nncn3n2)CC1
EC50 (Cryptosporidium parvum [1]): 70 nM | Activity (HCT-8): Non-Toxic | Activity [2]: 43% | inhibition at 1 µM (hERG (KCNH2) [3]): 15% | inhibition at 10 µM (hERG (KCNH2) [4]): 58% | inhibition at 30 µM (hERG (KCNH2) [5]): 84% | Activity (Cryptosporidium parvum [17]): >99% | Activity (Cryptosporidium parvum [18]): Active | Activity (Cryptosporidium parvum [19]): inactive
